Measured values published in article PMC9571170, “Exploring Active Ingredients, Beneficial Effects, and Potential Mechanism of Allium tenuissimum L. Flower for Treating T2DM Mice Based on Network Pharmacology and Gut Microbiota” (Nutrients, 2022).

Key:
[1] = target: α−Glucosidase (from yeast); experiment: In vitro α−glucosidase inhibitory activity assay (PNPG substrate); format: biochemical; conditions: n=3; acarbose positive control
Description: The α−glucosidase inhibitory activity assay method of A. tenuissimum flower flavonoids was slightly modified based on previous studies. A 96−well plate was used for preparing the mixture consisting of 0.1 M PBS (pH 6.8), 1.0 mg/mL sample solution, and 2 U/mL α−glucosidase, which were incubated at 37 °C for 10 min. 20 μL PNPG solution (2.5 Mm, dissolved in PBS) was added to each well to start the reaction and incubated at 37 °C. Twenty minutes later, 80 μL Na2CO3 solution (0.2 mol/L) was added to each well to terminate the reaction. The absorbance was measured at 405 nm by Tecan Infinite M200 PRO (Tecan Trading Co. Ltd., Shanghai, China). […] The inhibitory rate was calculated by the absorbance formula below:Inhibition% = [1 − (Aa − Ab) / Ac] × 100% a. 20 μL PNPG + 80 μL Na2CO3 + 20 μL PBS + 20 μL sample + 20 μL enzyme; b. 20 μL PNPG + 80 μL Na2CO3 + 40 μL PBS +20 μL sample; c. 20 μL PNPG + 80 μL Na2CO3 + 40 μL PBS + 20 μL enzyme.

[2] = design: method as in TCMSP database; conditions: filter condition; ref TCMSP database; cited from earlier work

IC50 [1] [µM]	Compound	Oral bioavailability (OB) [2] [%]
289 ± 14	CC(=O)OCC1OC(OC2C(C)OC(Oc3c(-c4ccc(O)cc4)oc4cc(O)cc(O)c4c3=O)C(O)C2O)C(O)C(O)C1O (centres unmarked) [AF−1, multiflorin A]	
	O=c1c(O)c(-c2ccc(O)cc2)oc2cc(O)cc(O)c12 [AF−8, kaempferol]	≥ 30
176 ± 6	CC(C)=CCc1cc(-c2oc3cc(O)cc(O)c3c(=O)c2O)ccc1O [AF−11, isolicoflavonol]	≥ 30
506 ± 1	COc1ccc(-c2oc3cc(OC)cc(O)c3c(=O)c2OC2OC(CO)C(O)C(O)C2O)cc1 (centres unmarked) [AF−15, kaempferol−4’,7−dimethyl−3−O−glucoside]	
	CN1[C@H]2C[C@H](OC(=O)[C@H](CO)c3ccccc3)C[C@@H]1[C@@H](O)C2 [AF−23, anisodamine]	≥ 30
300 ± 23	O=C(C=Cc1ccc(O)cc1)OCC1OC(Oc2c(-c3ccc(O)cc3)oc3cc(O)cc(O)c3c2=O)C(O)C(O)C1OC(=O)C=Cc1ccc(O)cc1 (stereo not drawn) [AF−33, kaempferol−3−O−β−D−4′′,6′′− di−(E)−p−coumaroyl glucoside]	
335 ± 1	O=c1c(OC2OC(COC3OC(CO)C(O)C(O)C3OC3OC(CO)C(O)C(O)C3O)C(O)C(O)C2O)c(-c2ccc(O)cc2)oc2cc(O)cc(O)c12 (stereo not drawn) [AF−34, kaempferol 3−O−β−D−glucopyranosyl−(1→2) −β−D−glucopyranosyl−(1→6)−β−D−glucopyranodide]	
230 ± 34	COc1ccc(-c2oc3cc(O)cc(O)c3c(=O)c2O)cc1CC=C(C)C [AF−38, macasiamenol B]	
282 ± 3	COc1ccc(-c2oc3cc(O)cc(O)c3c(=O)c2OC2OC(CO)C(O)C(O)C2O)cc1O (centres unmarked) [AF−40, tamarixin]	

Compound	IC50 [1] [µM]	Oral bioavailability (OB) [2] [%]
COc1cc(-c2oc3cc(O)cc(O)c3c(=O)c2OC2OC(COC(C)=O)C(O)C(O)C2O)ccc1O (stereo not drawn) [AF−36, isorhamnetin 3−O−β−D−(6−acetyl)−galactopyranoside]	326 ± 13	
